Patent US20150321985A1, “(HYDROXYSTILBENE COMPOUND)-(SINAPINIC ACID) REACTION PRODUCT HAVING ANTIFEEDING ACTIVITY” (UHA MIKAKUTO CO., LTD., priority 2012, published 2015)

Key:
[1] = test system: female mice C57BL/6j; test: Examination of antifeeding activity: test diets freely fed to mice for 42 days; assay type: in vivo; details: for Total diet intake during test period: C57BL/6j mice
Experimental: To examine the antifeeding activity of UHA1028, 8-week-old female mice C57BL/6j (manufactured by CLEA Japan, Inc.) were used. […] The mice were freely fed for 42 days. During the feeding period of test diets, the diet intake and the weight were measured twice a week.
A required amount of the UHA1028 was obtained by repeating the formation and isolation described in Example 1.
In Table 2, the amount of each component is represented as g per kg of diet.
The test diets fed to the control groups are, a normal diet, a high-fat diet, and a high-fat diet containing resveratrol but containing no test substance respectively.

[2] = test system: agouti-related peptide (AgRP); details: reporter assay in cultured cells; cited from earlier work
[3] = test system: NPY; details: reporter assay in cultured cells; cited from earlier work
[4] = 0.4% test substance in high-fat diet, 42 days

| SMILES | change in diet intake (FIG. 2) ([1]; 0.05% UHA1028-containing high-fat diet versus 0.4% resveratrol intake group) | Total diet intake during test period ([1]; 0.05% test substance in high-fat diet, 42 days) [g] | Total diet intake during test period ([1]; 0.1% test substance in high-fat diet, 42 days) [g] | Total diet intake during test period ([1]; 0.2% test substance in high-fat diet, 42 days) [g] | weight increase (FIG. 3) ([1]; 0.4% UHA1028 in high-fat diet versus 0.4% resveratrol intake group) | Total diet intake during test period [1, 4] [g] | diet intake versus the other groups ([1]; UHA1028 intake groups 0.05-0.4% in high-fat diet, Table 3) | anatomy of the mice at the end of the test (organs) ([1]; four UHA1028 intake groups (0.05-0.4%), 42 days) | antifeeding activity on long-term administration ([1]; administered for a long period of time, as in the examples) | expression of AgRP [2] | expression of NPY [3] |
| --- | --- | --- | --- | --- | --- | --- | --- | --- | --- | --- | --- |
| COc1cc(C(C)c2c(O)cc(/C=C/c3ccc(O)cc3)cc2O)cc(OC)c1O (stereo not drawn) [UHA1028] | significantly reduced as compared with the resveratrol intake group | 88.4 | 87.1 | 99.9 | significantly suppressed as compared with the resveratrol intake group | 97.5 | significantly lower than those of the other groups | no contraction or hypertrophy of organs was observed |  |  |  |
| Oc1ccc(C=Cc2cc(O)cc(O)c2)cc1 [Resveratrol, resveratrol, reference compound] |  |  |  |  |  | 106.7 |  |  | very low antifeeding activity | suppressed the expression of AgRP and NPY | suppressed the expression of AgRP and NPY |
